According to patent US4211764A, “Gastric secretion stimulation with 2-amino-5-(2-aminoethyl)-1,3,4-thiadiozole” (priority 1978, dated 1980):
Entries after “also recorded” stand apart in the source; their conditions may differ. Like-named read-outs stand apart in the source and are kept apart here.

Columns and labels:
[1] = target: H2 -receptors (Rattus norvegicus, UniProt P25102); conditions: uterus horn
Method: Contractions of an isolated horn of uterus of a rat due to the effect of acetylcholine in a concentration of 1.10^-6 M were recorded on a paper tape.

[2] = system: Male guinea pigs; experiment: Chronic toxicity, daily intravenous injections in guinea pigs; type: in vivo
Excerpt: Male guinea pigs weighing 200-250 g
1. Daily intravenous injections of thidazine

[3] = system: gastric juice; experiment: Acute Shay test (pylorus ligation); type: in vivo, rat; conditions: rats, 8 mg/kg intraperitoneally
Method: Twenty acute Shay tests were performed on male rats weighing 250 to 300 g. The pylorus of each of the animals was ligated 2 hours before the slaughter. The pH and volume of the gastric juice were determined. […] In the control group, pH of the gastric juice was 2.2, and the average HCl output was 0.12 mEq per animal. In the experimental animals, pH of the gastric juice was 1.6, and the HCl output was 0.41 mEq.

[4] = system: dog's stomach; experiment: Gastric secretion in dogs, administration per os; type: in vivo
Method: (§1) Chronic experiments were performed on male dogs weighing 20 to 25 kg and having a gastric fistula; prior to experiments, the animals were starved for 18 hours.

[5] = target: H2 -ceptors (Canis lupus familiaris, UniProt P17124); experiment: Gastric secretion in dogs with gastric fistula, intramuscular injection
Method: as §1
The gastric juice was analyzed for titratable acidity and proteolytic activity. The hydrochloric acid output was calculated in milliequivalents (mEq) and that of pepsin in milligrams.

[6] = system: gastric secretion; type: in vivo, human
Excerpt: (§2) Special attention was paid to side effects and the reproductibility of the secretory response after repeated administrations of the drug.
The clinical investigation also helped to determine effective doses of the proposed preparation for submaximum and maximum tests and different forms of administration.

[7] = system: H1 - and H2 -receptors; experiment: Comparison of effects upon H1 - and H2 -receptors of different objects
Method: Changes in the heart rate were measured, dose-response curves were plotted, and pD2 values were calculated.

[8] = system: total acidity; experiment: Clinical reproducibility of secretory response (total acidity); type: in vivo, human
Excerpt: as §2
Reproducibility of Secretory Response to Introduction
of Thidazine and Histamine with Reference to Total
Acidity Values (each group of patients includes 10 persons)
^(x) Percentage of difference is the relationship of the difference
between the total acidity values registered in the first and second tests
of a patient to the greater of these values.

[9] = target: T1, H1 -receptors (Cavia porcellus, UniProt P31389); experiment: Contraction of isolated ileum; conditions: guinea pig ileum; read-out: pD2 value in relation to H1 -receptors (converted)
T1 construct: from tissue; host or cells: isolated guinea pig ileum

[10] = system: Bulbar Conjunctiva; design: species or system guinea pigs, rabbits; conditions: in vivo
Excerpt: C. Irritant Action of 1-5% Solutions On
intramuscular injection

[11] = system: gastric secretion of patients with duodenal ulceration; experiment: Clinical comparison in patients with duodenal ulceration; type: in vivo, human
Excerpt: as §2
Histamine and Pentagastrin Upon Main Gastric Secretion
Characteristics of Patients With Duodenal Ulceration

[12] = system: arterial pressure; experiment: Arterial pressure in anesthetized cats
Method: These experiments were performed on 11 cats weighing 2.5 to 4.0 kg and anesthetized with urethane-chlorazol mixture containing 60 mg/kg of chlorazol and 600 mg/kg of urethane. The arterial pressure was measured in the common carotid artery with the aid of a mercury pressure gauge.

[13] = system: gastric secretion of patients of middle age group; experiment: Clinical test: effects of maximum doses upon gastric secretion of patients; type: in vivo, human; conditions: 2mg/kg; for Gastric Juice, Δ% / HCl Concentration, Δ% / Hourly HCl output, Δ%: 2nd versus 1st hour
Excerpt: as §2

[14] = system: Respiration; experiment: Effects on depth and rate of respiration; type: in vivo, rabbits and cats
Excerpt: E. Effects on Depth and Rate of
Respiration (rabbits and cats)

[15] = Acute toxicity, guinea pigs; conditions: guinea pig, in vivo, male guinea pigs
Excerpt: The results of the tests are generalized in Table 1.

[16] = 20 mg/kg i/v daily 10 days, beginning of experiment
[17] = 20 mg/kg i/v daily 10 days, end of experiment
[18] = hypodermic, 1st hour (basal secretion)
[19] = hypodermic, 2nd hour (response to drug)
[20] = per os, 1st hour (basal secretion)
[21] = per os, 2nd hour (response to drug)
[22] = 0.1-0.2 mg/kg i/m, Control Period
[23] = 0.1-0.2 mg/kg i/v, Control Period

Chain of H2 -ceptors (P17124 whole entry): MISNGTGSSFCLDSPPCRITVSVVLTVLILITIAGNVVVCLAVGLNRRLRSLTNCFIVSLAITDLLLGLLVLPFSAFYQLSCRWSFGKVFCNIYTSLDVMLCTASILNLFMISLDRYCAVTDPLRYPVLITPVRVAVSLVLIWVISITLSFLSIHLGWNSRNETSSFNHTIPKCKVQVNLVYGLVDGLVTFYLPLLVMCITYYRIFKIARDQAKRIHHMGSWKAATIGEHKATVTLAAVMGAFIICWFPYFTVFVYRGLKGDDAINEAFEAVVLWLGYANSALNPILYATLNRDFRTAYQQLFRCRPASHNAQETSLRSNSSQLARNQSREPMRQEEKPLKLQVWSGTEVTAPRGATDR
T1 sequence (P31389 whole entry): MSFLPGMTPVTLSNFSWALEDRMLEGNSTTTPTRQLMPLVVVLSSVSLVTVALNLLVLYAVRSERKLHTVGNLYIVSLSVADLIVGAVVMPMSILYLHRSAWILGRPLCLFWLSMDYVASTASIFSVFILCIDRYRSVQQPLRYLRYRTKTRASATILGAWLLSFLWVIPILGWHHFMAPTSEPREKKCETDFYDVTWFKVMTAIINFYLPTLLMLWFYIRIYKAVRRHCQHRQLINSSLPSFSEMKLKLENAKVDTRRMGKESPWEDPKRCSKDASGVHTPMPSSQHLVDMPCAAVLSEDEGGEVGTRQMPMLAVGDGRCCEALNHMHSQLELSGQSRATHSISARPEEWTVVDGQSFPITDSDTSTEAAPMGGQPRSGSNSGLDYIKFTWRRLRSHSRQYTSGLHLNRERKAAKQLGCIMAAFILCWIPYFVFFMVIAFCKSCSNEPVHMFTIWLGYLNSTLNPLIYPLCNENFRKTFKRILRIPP
Chain of H2 -receptors (P25102 whole entry): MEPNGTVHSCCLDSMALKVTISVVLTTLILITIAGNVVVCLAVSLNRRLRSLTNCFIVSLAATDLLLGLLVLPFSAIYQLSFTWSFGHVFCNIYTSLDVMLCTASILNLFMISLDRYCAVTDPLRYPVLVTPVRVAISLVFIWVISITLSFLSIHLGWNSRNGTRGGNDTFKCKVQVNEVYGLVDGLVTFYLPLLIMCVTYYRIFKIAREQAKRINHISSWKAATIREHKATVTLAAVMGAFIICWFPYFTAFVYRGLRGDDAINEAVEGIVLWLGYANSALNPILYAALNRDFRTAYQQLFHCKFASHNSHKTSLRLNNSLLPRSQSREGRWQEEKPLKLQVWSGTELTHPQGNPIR

## NCCc1nnc(N)s1 [Thidazine, 2-amino-5-(2-aminoethyl)-1,3,4-thiadiazole]
[1]
  Emax: 15%
[2]; 20 mg/kg i/v daily 10 days
  Coagulability of Blood: No changes
  Differential Blood Count: No significant changes
  ECG at beginning and end of experiment: No significant changes
[2]; 20 mg/kg i/v daily 10 days, Control Period (beginning)
  Average weight in test group: 220.0 ± 58 g
[2]; 20 mg/kg i/v daily 10 days, Test Period (end)
  Average weight in test group: 252.3 ± 50 g
[2]; [16]
  ESR, test group: 2 mm
  Erythrocytes, test group: 3.75 ± 0.1 mln.
  Hemoglobin, test group: 11.8 ± 0.1%
  Leukocytes, test group: 11360 ± 900 thous.
[2]; [17]
  ESR, test group: 2 mm
  Erythrocytes, test group: 3.93 ± 0.1 mln.
  Hemoglobin, test group: 12.4 ± 0.3%
  Leukocytes, test group: 9500 ± 835 thous.
[2]; two animal species, 1/10 LD50
  effect upon growth and development and blood composition: no significant effect
  pathological changes in the vital organs: causes no pathological changes in the vital organs
[3]
  increase of output of hydrochloric acid after ligation of the pylorus: increased the output of hydrochloric acid more than threefold
[3]; control group 0.12 mEq per animal
  HCl Output: 0.41 mEq
[3]; control group 2.2
  pH of the gastric juice: 1.6
[4]; per os, 100 mg per head
  maximum level of gastric secretion: 26 mEq per hour
[4]; thidazine 100 mg per head (parenterally and per os), histamine 10 and 20 mg, histalog 50 and 100 mg
  gastric secretion after administration per os: can produce a maximum secretory effect when administered both parenterally and per os; also recorded: can produce a maximum secretion in a dog's stomach when administered both parenterally and perorally
[5]; animal (dog)
  production of maximum level of hydrochloric acid secretion in the stomach: can produce a maximum level of hydrochloric acid secretion in the stomach of a dog
[5]; dog, 3 mg/kg (maximum secretion dose)
  effect upon arterial pressure, heart rate and general behavior: no significant effect
[5]; dogs, intramuscular
  maximum dose: 3.0 mg/kg
  maximum hourly output of hydrochloric acid: 24 mEq per hour
  maximum hourly output of pepsin: 110 mg per hour
  minimum active dose: 0.05 mg/kg
[6]; hypodermic or intramuscular
  dose for maximum secretion test: 1.6 mg/kg
  dose for submaximum secretion test: 0.8 mg/kg
[6]; patients, adequate doses
  secretory activity compared with histamine and pentagastrin: close to histamine and pentagastrin
[6]; patients, tablets or solutions
  effectiveness per os compared with parenteral: as effectively as parenterally
[6]; per os
  dose for maximum secretion test: 2.0 mg/kg
  dose for submaximum secretion test: 1.5 mg/kg
[7]
  action upon H2 -receptors compared with H1 -receptors: the action of thidazine upon H2 -receptors is stronger than its action upon H1 -receptors
[8]; 0.7 mg/kg hypodermic
  % of difference (fluctuations) of total acidity, first and second tests: 15-42%
  Average difference of total acidity: 31%
[8]; 1.5mg/kg per os
  % of difference (fluctuations) of total acidity, first and second tests: 0-22%
  Average difference of total acidity: 7.5%
[9]
  EC50: 398 µM
[10]
  Irritant Action: Negative reaction
[11]; 1st hour (basal secretion)
  Chymosin Output: 17.3 ± 0.3 units per hour
  Pepsin Output: 4.0 ± 0.7 units per hour
  Secretion, milliequivalents per hour: 7.25 ± 0.9 Milliequivalents per hour
[11]; 2nd hour
  Chymosin Output: 218.2 ± 4.0 units per hour
  Pepsin Output: 17.8 ± 2.3 units per hour
  Secretion, milliequivalents per hour: 23.9 ± 1.8 Milliequivalents per hour
[12]; anesthetized cats, 0.1 mg/kg intravenous
  reduction of arterial pressure: 30 mm of mercury
[12]; cats, doses below 0.1 mg/kg intravenous
  hypotensive reaction: No hypotensive reaction was observed
[13]; [18]
  Gastric Juice: 87.0 ml per hour
  HCl Concentration: 43.9 milliequivalents per liter
[13]; [19]
  Gastric Juice: 200.5 ml per hour
  HCl Concentration: 100.8 milliequivalents per liter
[13]; hypodermic
  Gastric Juice, Δ%: +130.5%
  HCl Concentration, Δ%: +129.6%
  Hourly HCl output, Δ%: +471.9%
[13]; hypodermic, 11 observations, 1st hour (basal secretion)
  Hourly HCl output: 8.2 milliequivalents per hour
[13]; hypodermic, 11 observations, 2nd hour (response to drug)
  Hourly HCl output: 18.3 milliequivalents per hour
[13]; [20]
  Gastric Juice: 102.1 ml per hour
  HCl Concentration: 33.3 milliequivalents per liter
[13]; [21]
  Gastric Juice: 227.9 ml per hour
  HCl Concentration: 103.2 milliequivalents per liter
[13]; per os
  Gastric Juice, Δ%: +123%
  HCl Concentration, Δ%: +209.9%
  Hourly HCl output, Δ%: +402.3%
[13]; per os, 13 observations, 1st hour (basal secretion)
  Hourly HCl output: 4.3 milliequivalents per hour
[13]; per os, 13 observations, 2nd hour (response to drug)
  Hourly HCl output: 21.6 milliequivalents per hour
[14]; 1 mg/kg i/v, Control Period
  Respiration amplitude: 10.0 ± 0.8 mm
  Respiration rate per minute: 120 ± 10.0 per minute
[14]; 1 mg/kg i/v, Test Period
  Respiration amplitude: 14.0 ± 0.4 mm
  Respiration rate per minute: 85.0 ± 6.0 per minute
[14]; 2 mg/kg i/v, Control Period
  Respiration amplitude: 110.0 ± 7.0 mm
  Respiration rate per minute: 100.0 ± 8.0 per minute
[14]; 2 mg/kg i/v, Test Period
  Respiration amplitude: 140 ± 20.0 mm
  Respiration rate per minute: 85.0 ± 10.0 per minute
[14]; [22]
  Respiration amplitude: 160.0 ± 6.2 mm
  Respiration rate per minute: 79.0 ± 2.0 per minute
[14]; 0.1-0.2 mg/kg i/m, Test Period
  Respiration amplitude: 160 ± 10.1 mm
  Respiration rate per minute: 78.0 ± 2.3 per minute
[14]; [23]
  Respiration amplitude: 220 ± 0.3 mm
  Respiration rate per minute: 90.0 ± 0.2 per minute
[14]; 0.1-0.2 mg/kg i/v, Test Period
  Respiration amplitude: 180 ± 0.1 mm
  Respiration rate per minute: 85.0 ± 0.4 per minute
[15]; ip, 280-350 g, i/p
  LD50: 360 mg/kg
[15]; iv, 200-250 g, i/v
  LD50: 190 mg/kg
